Reference: patent publication US7622446B2, “Polypeptides, derivatives and uses thereof” (The Open University, priority 2001, dated 2009)
No end group written: not given here.

Assays:
Format in all cases: in vivo, chick
[1] = system: chicks; assay: APP-antisense induced amnesia, passive avoidance task, strong training; details: for effect on APP-antisense induced amnesia (percent avoidance): FIG. 5
Protocol: Commercially obtained Ross Chunky eggs were incubated and hatched in brooders and held until 16±6 hours old. Chicks were placed in pairs in small aluminium pens. Following an equilibration period of an hour, the chicks were pretrained and trained essentially as described by Lossner and Rose (J. Neurochem. 41, 1357-1363 (1983), the contents of which are incorporated herein by reference). Pretraining involved three 10 s presentations of a small (2 mm diameter) white bead, at approximately 5 minute intervals. […] Two training techniques were used: “strong” and “weak” training. In both, 5 to 10 minutes after the last pre-training trial, chicks were trained by a 10 s presentation of a 4 mm diameter chrome bead, which had been dipped in the bitter-tasting methylanthranilate. Control chicks pecked at a water-coated or dry bead. In the “strong” version of the task, 100% methylanthranilate was used. In the “weak” version, 10% methylanthranilate was used. Chicks spontaneously pecked at the training or control beads within 20 s. Chicks that peck at the bitter bead evinced a disgust reaction and would not normally peck at a similar, but dry bead for some hours subsequently. At various times following training chicks were tested, by offering them a dry 4 mm diameter chrome bead, followed 10 minutes later by a small (2 mm diameter) white bead, each for 20 to 30 s. Animals were tested by an experimenter blind as to which treatment each chick had received. Chicks are considered to remember the task if they avoid the chrome bead at test but peck at the white bead (discriminate), and to have forgotten it if they peck at both beads. Recall is calculated as a percent avoidance score (percentage of chicks which avoid the chrome bead) and as a discrimination score (percentage of chicks which avoid the chrome but peck at the white bead). […]
Bilateral intracranial injections ([…]) of either saline, or solutions in saline of different peptides (0.5 to 5 μg/hemisphere) homologous to different regions of the external domain of human APP were injected intracerebrally into a specific brain region, known to be required for memory formation (the intermediate hyperstriatum ventrale) at different time-points pre- or post-training using a […] fitted with a plastic sleeve to allow a penetration of 3 mm. […] Correct placement was ensured by using a specially designed headholder described by Davis et al (Physiol. Behav. 22, 177-184 (1979), the contents of which are incorporated herein by reference) and was routinely visually monitored postmortem. […]

[2] = system: chicks; assay: β-amyloid 12-28 induced amnesia, passive avoidance task, strong training
Protocol: (§1) Commercially obtained Ross Chunky eggs were incubated and hatched in brooders and held until 16±6 hours old. Chicks were placed in pairs in small aluminium pens. Following an equilibration period of an hour, the chicks were pretrained and trained essentially as described by Lossner and Rose (J. Neurochem. 41, 1357-1363 (1983), the contents of which are incorporated herein by reference). Pretraining involved three 10 s presentations of a small (2 mm diameter) white bead, at approximately 5 minute intervals. […] Two training techniques were used: “strong” and “weak” training. In both, 5 to 10 minutes after the last pre-training trial, chicks were trained by a 10 s presentation of a 4 mm diameter chrome bead, which had been dipped in the bitter-tasting methylanthranilate. Control chicks pecked at a water-coated or dry bead. In the “strong” version of the task, 100% methylanthranilate was used. In the “weak” version, 10% methylanthranilate was used. Chicks spontaneously pecked at the training or control beads within 20 s. Chicks that peck at the bitter bead evinced a disgust reaction and would not normally peck at a similar, but dry bead for some hours subsequently. At various times following training chicks were tested, by offering them a dry 4 mm diameter chrome bead, followed 10 minutes later by a small (2 mm diameter) white bead, each for 20 to 30 s. Animals were tested by an experimenter blind as to which treatment each chick had received. Chicks are considered to remember the task if they avoid the chrome bead at test but peck at the white bead (discriminate), and to have forgotten it if they peck at both beads. Recall is calculated as a percent avoidance score (percentage of chicks which avoid the chrome bead) and as a discrimination score (percentage of chicks which avoid the chrome but peck at the white bead). […] Each chick was trained and tested only once and differences between groups tested for statistical significance by g-test described by Sokal and Rohlf (Biometry: the Principles and Practice of Statistics in Biological Research (2nd edition), W H Freeman, New York (1981)), the contents of which are incorporated herein by reference. The validity of this particular training task used to assess memory formation is extensively discussed by Andrew (Neural and Behavioural Plasticity: the Use of the Domestic Chick as a Model, Oxford University Press, Oxford, UK (1991), the contents of which are incorporated herein by reference.
(§2) Thus the learning experience is not committed to long-term memory. Agents that are memory enhancers can thus be tested. A memory enhancing agent, administered to a chick trained on the weak learning task, produces an increase in retention—increased avoidance of the chrome bead—at 24 hours. That is, such memory enhancers help convert weak to strong learning by enabling the transition from shorter to longer-term memory.
(§3) Bilateral intracranial injections ([…]) of either saline, or solutions in saline of different peptides (0.5 to 5 μg/hemisphere) homologous to different regions of the external domain of human APP were injected intracerebrally into a specific brain region, known to be required for memory formation (the intermediate hyperstriatum ventrale) at different time-points pre- or post-training using a […] fitted with a plastic sleeve to allow a penetration of 3 mm. After completion of the injection, the needle was kept in place for 5 s. Correct placement was ensured by using a specially designed headholder described by Davis et al (Physiol. Behav. 22, 177-184 (1979), the contents of which are incorporated herein by reference) and was routinely visually monitored postmortem. Peptides or other substances were administered at various times either before or after the training protocol. Chicks were tested at different time points post-training as described above.

[3] = system: chicks; assay: Memory enhancement on weak training (10% methylanthranilate), passive avoidance task; details: for effect of differing doses on weak training (percent avoidance): 30 mins before training, RER 0.2, 1.0, 2.0 μg/hemisphere, Ac-RER 4.0, 6.0 μg/hemisphere
Protocol: as §1, §2
as §3, with “above. […]” for “above.”

[4] = system: chicks; assay: anti-APP (mb22C11) induced amnesia, passive avoidance task; details: FIG. 4; mb22C11 30 minutes pretraining, peptide 5 minutes pretraining; memory tested 24 hours posttraining
Protocol: Commercially obtained Ross Chunky eggs were incubated and hatched in brooders and held until 16±6 hours old. Chicks were placed in pairs in small aluminium pens. Following an equilibration period of an hour, the chicks were pretrained and trained essentially as described by Lossner and Rose (J. Neurochem. 41, 1357-1363 (1983), the contents of which are incorporated herein by reference). Pretraining involved three 10 s presentations of a small (2 mm diameter) white bead, at approximately 5 minute intervals. […] Two training techniques were used: “strong” and “weak” training. In both, 5 to 10 minutes after the last pre-training trial, chicks were trained by a 10 s presentation of a 4 mm diameter chrome bead, which had been dipped in the bitter-tasting methylanthranilate. Control chicks pecked at a water-coated or dry bead. In the “strong” version of the task, 100% methylanthranilate was used. In the “weak” version, 10% methylanthranilate was used. Chicks spontaneously pecked at the training or control beads within 20 s. Chicks that peck at the bitter bead evinced a disgust reaction and would not normally peck at a similar, but dry bead for some hours subsequently. […] Recall is calculated as a percent avoidance score (percentage of chicks which avoid the chrome bead) and as a discrimination score (percentage of chicks which avoid the chrome but peck at the white bead). […]

[5] = AS oligodeoxynucleotide 12 hours pretraining, peptide 30 minutes pretraining, strong learning task
[6] = FIG. 10, 2 μg/hemisphere 20 mins prior to training after β-amyloid 12-28 (2 μg/hemisphere) 30 mins prior to training, measured 20 mins after administration
[7] = FIGS. 7-9, peptide 30 minutes pretraining, memory tested 24 hours posttraining

## AS oligodeoxynucleotide: 16-mer end-protected phosphodiester oligodeoxynucleotide 5′-CCC GAG GAC TGA GCC A-3′ (SEQ ID No: 21) against APP mRNA, antisense form (antisense CCCGAGGACTGAGCCA; end-protected phosphodiester DNA, nucleotides 2 and 13 modified, nature not given here) [reference compound]
[1]; FIG. 5a, 0.6 to 1.0 μg in 2 μl, 12 hours pretraining, strong learning task
  effect of oligodeoxynucleotide on memory (percent avoidance): had a significant effect of memory loss

## Arg-Ser-Ala-Glu-Arg (RSAER) [reference compound]
[1]; [5]
  effect on APP-antisense induced amnesia (percent avoidance): absent

## Arg-Glu-Arg (RER)
[2]; [6]
  effect on β-amyloid 12-28 induced amnesia (percent avoidance): have the effect of restoring memory
[3]; FIG. 12
  effect of differing doses on weak training (percent avoidance): have the effect of improving the memory of weakly-trained chicks
[3]; [7]
  effect on weak training (percent avoidance): enhances memory at 24 hours

## Arg-Glu-Arg-Met-Ser (RERMS)
[2]; FIG. 3, β-amyloid 12-28 30 minutes pretraining, peptide 20 minutes pretraining, memory tested 24 hours posttraining
  effect on β-amyloid 12-28 induced amnesia (percent avoidance): memory retention is restored
[4]
  effect on anti-APP induced amnesia (percent avoidance): will prevent antibody induced memory loss
[1]; [5]
  effect on APP-antisense induced amnesia (percent avoidance): avoided to a substantial extent
[3]; [7]
  effect on weak training (percent avoidance): enhance memory at 24 hours

## AKERLEAKHRERMSQVM [APP 319-335]
[1]; FIG. 6, AS oligodeoxynucleotide 12 hours pretraining, peptide 30 minutes pretraining, tested 30 minutes posttraining
  effect on APP-antisense induced amnesia (percent avoidance: total avoidance and discrimination): can prevent antisense induced memory loss
[3]; [7]
  effect on weak training (percent avoidance): enhance memory at 24 hours

## CC(=O)NC(CCCNC(=N)N)C(=O)NC(CCC(=O)O)C(=O)OC(CCCNC(=N)N)C(=O)O (centres unmarked) [Ac-RER]
[2]; [6]
  effect on β-amyloid 12-28 induced amnesia (percent avoidance): less than that of RER
[2]; FIG. 10, 2 μg/hemisphere 20 mins prior to training after β-amyloid 12-28 (2 μg/hemisphere) 30 mins prior to training, measured 20 mins after administration, listed as AC-RER
  effect on β-amyloid 12-28 induced amnesia (percent avoidance): have the effect of restoring memory
[2]; FIG. 10, inferred from memory-restorative effect compared with RER
  stability after administration (indicated by FIG. 10 results): more stable after administration
[2]; FIG. 13, 4 μg/hemisphere 60, 20 or 30 mins prior to training (before, after or together with β-amyloid 12-28 2 μg/hemisphere)
  effect on β-amyloid 12-28 induced amnesia (percent avoidance): has the effect of restoring memory
[3]; FIG. 11, 2 μg/hemisphere 30 mins before training
  effect on weak training (percent avoidance): has the effect of improving the memory of weakly trained chicks
[3]; FIG. 11, 2 μg/hemisphere 60 mins before training
  effect on weak training (percent avoidance): still significant, although less than 30 minutes after administration
[3]; FIG. 12
  effect of differing doses on weak training (percent avoidance): have the effect of improving the memory of weakly-trained chicks
[3]; FIG. 12, Ac-RER compared with RER
  dose required to obtain a comparable effect on weak training: higher doses of Ac-RER than of RER
[3]; FIG. 12, inferred from the doses required
  stability after administration (indicated by FIG. 12 results): more stable after administration than RER
